Earlier results on one compound are cited in patent US20070135423A1, “E-fluoro-4-(pyridin-2-yl)-piperidine-1-carboxamide derivatives and related compounds which modulate the function of the vanilloid-1 receptor (vr1) for the treatment of pain” (priority 2003, published 2007).

In the data set the target is VR1 (Rattus norvegicus, UniProt O35433). The settings on record: Wahl et al., Mol. Pharmacol, 59:9, 2001.
VR1, sequence (O35433 whole entry): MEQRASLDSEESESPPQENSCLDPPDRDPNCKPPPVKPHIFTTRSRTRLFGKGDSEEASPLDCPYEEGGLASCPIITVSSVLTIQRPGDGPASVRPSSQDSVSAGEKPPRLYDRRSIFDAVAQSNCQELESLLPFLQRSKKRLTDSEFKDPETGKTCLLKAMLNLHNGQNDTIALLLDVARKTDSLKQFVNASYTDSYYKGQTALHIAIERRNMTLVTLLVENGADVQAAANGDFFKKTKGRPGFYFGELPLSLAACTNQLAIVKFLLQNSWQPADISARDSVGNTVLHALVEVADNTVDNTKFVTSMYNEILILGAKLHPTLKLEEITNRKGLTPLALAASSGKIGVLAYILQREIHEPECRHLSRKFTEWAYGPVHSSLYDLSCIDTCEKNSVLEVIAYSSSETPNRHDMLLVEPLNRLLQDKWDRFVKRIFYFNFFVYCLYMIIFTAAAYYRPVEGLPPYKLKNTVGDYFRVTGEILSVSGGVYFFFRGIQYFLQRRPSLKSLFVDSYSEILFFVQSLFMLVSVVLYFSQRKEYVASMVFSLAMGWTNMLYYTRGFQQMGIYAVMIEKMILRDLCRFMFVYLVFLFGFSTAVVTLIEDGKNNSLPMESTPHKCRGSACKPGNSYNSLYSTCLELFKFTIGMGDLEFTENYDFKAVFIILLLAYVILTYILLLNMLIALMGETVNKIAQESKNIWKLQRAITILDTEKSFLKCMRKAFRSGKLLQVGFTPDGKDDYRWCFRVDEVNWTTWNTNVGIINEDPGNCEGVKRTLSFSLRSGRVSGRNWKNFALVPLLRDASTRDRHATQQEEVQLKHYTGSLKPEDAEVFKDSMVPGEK

Take `C=C(C)[C@]12C[C@@H](C)[C@@]34O[C@](Cc5ccccc5)(O[C@@H]1[C@@H]3C=C(COC(=O)Cc1cc(I)c(O)c(OC)c1)C[C@]1(O)C(=O)C(C)=C[C@@H]41)O2` [Iodo-resiniferatoxin]: the “VR1 antagonist potency (in words)” value is given as “nanomolar antagonist”.
